Patent US12503436B2, “Compounds and compositions for treating conditions associated with STING activity” (NOVARTIS PHARMA AG, priority 2021, dated 2025)

Target: STING (Homo sapiens, UniProt Q86WV6, G230A/H232R/R293Q/R71H)
Assay: STING reporter assay in THP1-Dual KO-IFNAR2 cells (2′3′cGAMP stimulation, luciferase reporter)
Format: cell-based
Details: 15 μM 2′3′cGAMP stimulation, 24 h, read-out: Pharmaron, THP1_IFNAR2 STING 24 h Luci Normalized: GeoMean EC50
Method: STING pathway activation by the compounds described herein was measured using THP1-Dual™ cells (KO-IFNAR2).
THP1-Dual™ KO-IFNAR2 Cells (obtained from InvivoGen) were maintained in RPMI, 10% FCS, 5 ml P/S, 2 mM L-glut, 10 mM Hepes, and 1 mM sodium pyruvate. Compounds were spotted in empty 384 well tissue culture plates (Greiner 781182) by Echo for a final concentration of 0.0017-100 μM. Cells were plated into the TC plates at 40 μL per well, 2×10E6 cells/mL. For activation with STING ligand, 2′3′cGAMP (MW 718.38, obtained from Invivogen), was prepared in Optimem media.
The following solutions were prepared for each 1×384 plate: • Solution A: 2 mL Optimem with one of the following stimuli: • 60 μL of 10 mM 2′3′cGAMP→150 μM stock • Solution B: 2 mL Optimem with 60 μL Lipofectamine 2000→Incubate 5 min at RT
2 mL of solution A and 2 ml Solution B was mixed and incubated for 20 min at room temperature (RT). 20 μL of transfection solution (A+B) was added on top of the plated cells, with a final 2′3′cGAMP concentration of 15 μM. The plates were then centrifuged immediately at 340 g for 1 minute, after which they were incubated at 37° C., 5% CO2, >98% humidity for 24 h. Luciferase reporter activity was then measured. EC50 values were calculated by using standard methods known in the art.
Luciferase reporter assay: 10 μL of supernatant from the assay was transferred to white 384-plate with flat bottom and squared wells. One pouch of QUANTI-Luc™ Plus was dissolved in 25 mL of water. 100 μL of QLC Stabilizer per 25 mL of QUANTI-Luc™ Plus solution was added. 50 μL of QUANTI-Luc™ Plus/QLC solution per well was then added. Luminescence was measured on a Platereader (e.g., Spectramax I3X (Molecular Devices GF3637001)).
Luciferase reporter activity was then measured. EC50 values were calculated by using standard methods known in the art.

Chain of STING (Q86WV6 whole entry R71H/G230A/H232R/R293Q): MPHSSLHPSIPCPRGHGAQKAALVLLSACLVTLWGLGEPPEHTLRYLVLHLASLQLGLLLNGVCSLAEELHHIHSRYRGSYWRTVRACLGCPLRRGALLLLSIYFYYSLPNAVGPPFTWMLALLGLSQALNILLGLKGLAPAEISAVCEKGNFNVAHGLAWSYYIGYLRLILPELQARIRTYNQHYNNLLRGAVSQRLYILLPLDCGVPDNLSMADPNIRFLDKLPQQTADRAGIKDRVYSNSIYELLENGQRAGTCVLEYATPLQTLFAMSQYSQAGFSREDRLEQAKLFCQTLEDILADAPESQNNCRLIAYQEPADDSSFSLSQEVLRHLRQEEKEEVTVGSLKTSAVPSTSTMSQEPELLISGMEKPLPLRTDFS

| EC50 [nM] | Compound |
| --- | --- |
| 1000 to 5000 | CC(=O)Nc1c[nH]c2ccc(COC[C@@H]3[C@H]4CN(CC(F)(F)F)C[C@@H]34)cc12 [Compound 274, N-(5-((((1R,5S,6r)-3-(2,2,2-trifluoroethyl)-3-azabicyclo[3.1.0]hexan-6-yl)methoxy)methyl)-1H-indol-3-yl)acetamide] |
| 200 to 1000 | O=C(Nc1c[nH]c2ccc(CCOc3ccc(C(F)(F)F)cc3)cc12)C1CCC1 [Compound 145, N-(5-(2-(4-(trifluoromethyl)phenoxy)ethyl)-1H-indol-3-yl)cyclobutanecarboxamide] |
| 1000 to 5000 | CC(=O)Nc1c[nH]c2ccc(CCOc3ccc(-c4ccncc4)cc3)cc12 [Compound 451, N-(5-{2-[4-(pyridin-4-yl)phenoxy]ethyl} -1H-indol-3-yl)acetamide] |
| 40 to 200 | O=C(Nc1c[nH]c2ccc(CCOc3ccc(C(F)(F)F)cc3)cc12)C1CC(F)C1 (stereo not shown) [Compound 593, 3-fluoro-N-(5-(2-(4-(trifluoromethyl)phenoxy)ethyl)-1H-indol-3-yl)cyclobutane-1-carboxamide] |
| 1000 to 5000 | CC(=O)Nc1c[nH]c2ccc(CCOc3cnc4c(C(F)(F)F)cccc4c3)cc12 [Compound 555, N-(5-(2-((8-(trifluoromethyl)quinolin-3-yl)oxy)ethyl)-1H-indol-3-yl)acetamide] |
| 1000 to 5000 | CC(=O)Nc1c[nH]c2ccc(CCNc3ccc(C(F)(F)F)cn3)cc12 [Compound 199, N-(5-(2-((5-(trifluoromethyl)pyridin-2-yl)amino)ethyl)-1H-indol-3-yl)acetamide] |
| 5000 to 100000 | CC(=O)Nc1c[nH]c2ccc(OCCc3cnn4c3CCCC4)cc12 [Compound 349, N-(5-(2-(4,5,6,7-tetrahydropyrazolo[1,5-a]pyridin-3-yl)ethoxy)-1H-indol-3-yl)acetamide] |
| 1000 to 5000 | CC(=O)Nc1c[nH]c2ccc(OCC(F)C3CCN(CC(F)(F)F)CC3)cc12 (stereo not shown) [Compound 105, N-(5-(2-fluoro-2-(1-(2,2,2-trifluoroethyl)piperidin-4-yl)ethoxy)-1H-indol-3-yl)acetamide] |
| 40 to 200 | O=C(Nc1c[nH]c2ccc(CCOc3ccc(C(F)(F)F)cc3)cc12)C1CC(CO)C1 (stereo not shown) [Compound 308, 3-(hydroxymethyl)-N-(5-(2-(4-(trifluoromethyl)phenoxy)ethyl)-1H-indol-3-yl)cyclobutane-1-carboxamide] |
| 200 to 1000 | CC1(C)CC1C(=O)Nc1c[nH]c2ccc(OCc3ccc(C(F)(F)F)cc3)cc12 (stereo not shown) [Compound 155, 2,2-dimethyl-N-(5-((4-(trifluoromethyl)benzyl)oxy)-1H-indol-3-yl)cyclopropane-1-carboxamide] |
| 1000 to 5000 | CC(=O)Nc1c[nH]c2ccc(Oc3ccc(C(F)(F)F)cc3)cc12 [Compound 124, N-(5-(4-(trifluoromethyl)phenoxy)-1H-indol-3-yl)acetamide] |
| 200 to 1000 | O=C(Nc1c[nH]c2ccc(CCOc3ccc(C(F)(F)F)cc3)cc12)C1CC(Cl)C1 (stereo not shown) [Compound 177, 3-chloro-N-(5-(2-(4-(trifluoromethyl)phenoxy)ethyl)-1H-indol-3-yl)cyclobutane-1-carboxamide] |
| 1000 to 5000 | CC(=O)Nc1c[nH]c2ncc(COCc3ccc(C(F)(F)F)cc3)cc12 [Compound 271, N-(5-(((4-(trifluoromethyl)benzyl)oxy)methyl)-1H-pyrrolo[2,3-b]pyridin-3-yl)acetamide] |
| 40 to 200 | CC(=O)Nc1c[nH]c2ccc(COc3ccc(C(F)(F)F)cc3)cc12 [Compound 115, N-(5-((4-(trifluoromethyl)phenoxy)methyl)-1H-indol-3-yl)acetamide] |
| 200 to 1000 | O=C(Nc1c[nH]c2ccc(OCCc3ccc(C(F)(F)F)cc3)cc12)C1(F)CC1 [Compound 218, 1-fluoro-N-(5-(4-(trifluoromethyl)phenethoxy)-1H-indol-3-yl)cyclopropane-1-carboxamide] |
| 40 to 200 | CC(=O)Nc1c[nH]c2ccc(OCCc3ccc(S(F)(F)(F)(F)F)cc3)cc12 [Compound 169, N-(5-(4-(pentafluoro-16-sulfaneyl)phenethoxy)-1H-indol-3-yl)acetamide] |
| 200 to 1000 | O=C(Nc1c[nH]c2ccc(OCCc3ccc(C(F)(F)F)cc3)cc12)C1CC(O)C1 (stereo not shown) [Compound 180, 3-hydroxy-N-(5-(4-(trifluoromethyl)phenethoxy)-1H-indol-3-yl)cyclobutane-1-carboxamide] |
| 40 to 200 | CC(=O)Nc1c[nH]c2ccc(OC3CN(c4ccc(C(F)(F)F)cc4)C3)cc12 [Compound 233, N-(5-((1-(4-(trifluoromethyl)phenyl)azetidin-3-yl)oxy)-1H-indol-3-yl)acetamide] |
| 200 to 1000 | 3-chloro-N-(5-(2-((3aR,5r,6aS)-2-(2,2,2-trifluoroethyl)octahydrocyclopenta[c]pyrrol-5-yl)ethoxy)-1H-indol-3-yl)cyclobutane-1-carboxamide [Compound 342] |
| 40 to 200 | CC(C)(C)CC(=O)Nc1c[nH]c2ccc(OCCc3ccc(C(F)(F)F)cc3)cc12 [Compound 202, 3,3-dimethyl-N-(5-(4-(trifluoromethyl)phenethoxy)-1H-indol-3-yl)butanamide] |
| 200 to 1000 | CC1(C(=O)Nc2c[nH]c3ccc(OC[C@H]4C[C@@H]5CN(CC(F)(F)F)C[C@@H]5C4)cc23)COC1 [Compound 542, 3-methyl-N-(5-(((3aR,5s,6aS)-2-(2,2,2-trifluoroethyl)octahydrocyclopenta[c]pyrrol-5-yl)methoxy)-1H-indol-3-yl)oxetane-3-carboxamide] |
| 200 to 1000 | O=C(Nc1c[nH]c2ccc(CCOc3ccc(C(F)(F)F)cc3)cc12)C1CC1 [Compound 592, N-(5-(2-(4-(trifluoromethyl)phenoxy)ethyl)-1H-indol-3-yl)cyclopropanecarboxamide] |
| 40 to 200 | CO[C@H]1C[C@H](C(=O)Nc2c[nH]c3ccc(OCCc4ccc(C(F)(F)F)cc4)cc23)C1 [Compound 211, trans-3-methoxy-N-(5-(4-(trifluoromethyl)phenethoxy)-1H-indol-3-yl)cyclobutane-1-carboxamide] |

| Compound | EC50 [nM] |
| --- | --- |
| O=C(Nc1c[nH]c2ccc(O[C@H]3C[C@H](c4ccc(C(F)(F)F)cc4)C3)cc12)C1CCOCC1 [Compound 493, N-{5-[(1R,3R)-3-[4-(trifluoromethyl)phenyl]cyclobutoxy]-1H-indol-3-yl}oxane-4-carboxamide] | 40 to 200 |
| N#CC1(C(=O)Nc2c[nH]c3ccc(O[C@H]4C[C@H](c5ccc(C(F)(F)F)cc5)C4)cc23)CC1 [Compound 565, 1-cyano-N-(5-(trans-3-(4-(trifluoromethyl)phenyl)cyclobutoxy)-1H-indol-3-yl)cyclopropane-1-carboxamide] | 200 to 1000 |
| COCCOCC(=O)Nc1c[nH]c2ccc(O[C@H]3C[C@H](c4ccc(C(F)(F)F)cc4)C3)cc12 [Compound 486, 2-(2-methoxyethoxy)-N-{5-[(1R,3R)-3-[4-(trifluoromethyl)phenyl]cyclobutoxy]-1H-indol-3-yl}acetamide] | 40 to 200 |
| CC1(C(=O)Nc2c[nH]c3ccc(OC4CC(c5ccc(C(F)(F)F)nc5)C4)cc23)CC1 (stereo in doubt) [Compound 580, 1-methyl-N-(5-(cis-3-(6-(trifluoromethyl)pyridin-3-yl)cyclobutoxy)-1H-indol-3-yl)cyclopropane-1-carboxamide] | 40 to 200 |
| O=C(Nc1c[nH]c2ccc(O[C@H]3C[C@@H](c4ccc(C(F)(F)F)cc4)C3)cc12)C1CC(F)(F)C1 [Compound 587, 3,3-difluoro-N-(5-(cis-3-(4-(trifluoromethyl)phenyl)cyclobutoxy)-1H-indol-3-yl)cyclobutane-1-carboxamide] | 40 to 200 |
